Measured values reported in PMC5786788, “Antimicrobial Octapeptin C4 Analogues Active against Cryptococcus Species” (Antimicrobial Agents and Chemotherapy, 2018).
Read-outs that look alike come from different tables or passages of the source. Where a SMILES comes first, the peptide text is derived from it. Bridges are numbered along the chain shown (N, C = ends). [ ]: non-standard residue; d: D form. The star is where a group is joined. Decanoyl(3R-OH) = CCCCCCC[C@@H](O)CC(=O)*; dDab = NCC[C@@H](N)C(=O)O; Dab = NCC[C@H](N)C(=O)O

Columns and labels:
C. gattii MMRL 2651 = system: C. gattii MMRL 2651
Experimental: (§1) A broth microdilution assay was initially used to characterize the antifungal activity of the cyclic lipopeptides ([39], [40]). […] common pathogenic yeasts (C. albicans, C. glabrata, C. parapsilosis, C. neoformans, and C. gattii) and one pathogenic mold (A. fumigatus) were tested to determine the MIC for each compound (Table 1) using broth microdilution. […] The only structural difference between these molecules is the presence of a phenylalanine residue at position 6 in PMB; in PME a D-leucine is present at this location (Fig. 1).
(§2) Fungal strains were stored in 15% glycerol at −80°C until use. The fungal strains used were H99 (C. neoformans type strain) ([55]), cap59Δ (an acapsular H99 mutant) ([56]), ATCC 90113 (C. neoformans), MMRL 2651 (C. gattii), ATCC 90028 (Candida albicans), ATCC 90030 (Candida glabrata), ATCC 22019 (Candida parapsilosis), and ATCC MYA 3626 (Aspergillus fumigatus). Yeasts were cultured in liquid (1% yeast extract, 2% Bacto peptone, 2% glucose) or solid (additional 2% agar) yeast extract-peptone-dextrose (YPD) media at 30°C and maintained at 4°C for no longer than 2 weeks. A. fumigatus was prepared on potato dextrose medium at 30°C and maintained at 4°C for no longer than 2 weeks.
(§3) The MICs of the yeast strains for PMB, PME, and octapeptin C4 and its derivatives were determined in accordance with CLSI M27-A2 guidelines using YNB (Becton Dickinson, USA) medium supplemented with 10 mM ammonium sulfate and 2% glucose, a final inoculum concentration of 1.5 × 10^3 to 2.0 × 10^3 cells/ml, and incubation at 35°C for 72 h ([39]). […] The MICs for PMB, PME, and octapeptin C4 for A. fumigatus were determined in accordance with the CLSI M38-A2 guidelines ([40]) using synthetic RPMI 1640 medium (with glutamine, without bicarbonate and with phenol red; Life Technologies, USA). The final inoculum concentration was 0.4 × 10^4 to 5 × 10^4 cells/ml, with incubation at 35°C for 48 h. […] All assays were completed in triplicate. Fluconazole was used as a positive control where the MIC was determined at both 50% growth (in accordance with CLSI M27-A2 guidelines) and when there was a “no visible growth” reading.

C. neoformans ATCC 90113 = details: for MICs against various Cryptococcus strains: ATCC 90113: ATCC 90113, 72 h
Experimental: as §1, §2, §3

C. neoformans H99 = details: for MICs against various Cryptococcus strains: H99: H99, 72 h; for MIC C. neoformans H99: Table 1, CLSI M27-A2, YNB medium, 35°C, no visible growth after 72 h, triplicate
Experimental: as §1, §2, §3

[1] = system: C. neoformans H99 (cap59Δ); assay type: cell-based, Cryptococcus neoformans; details: triplicate; for MICs against various Cryptococcus strains: H99 (cap59Δ): Table 2, values consistent across replicates
Excerpt: The different susceptibility of C. neoformans and C. gattii to PMB compared to other pathogenic fungi such as C. albicans and A. fumigatus has been postulated to arise from differences in cell surface composition ([38]). One key difference is the presence of a negatively charged polysaccharide capsule in Cryptococcus spp. proposed to concentrate the cationic lipopeptides at the cell surface ([38]). To examine this potential interaction for the octapeptin series, a C. neoformans cap59Δ mutant strain deficient in the secretion of negatively charged glucuronoxylomannan (an α1–3-linked mannan containing β1,2 and β1,4 xylosyl substitutions, as well as β1,2-linked glucuronyl residues) ([41], [42]), was tested against octapeptin C4 in comparison to PMB.
as §2, §3

C. albicans = assay: Broth microdilution MIC; assay type: cell-based, Candida albicans; details: ATCC 90028; CLSI M27-A2, YNB medium, 35°C, no visible growth after 48 h; triplicate
Experimental: as §1, §2
(§4) […] The final inoculum concentration was 0.4 × 10^4 to 5 × 10^4 cells/ml, with incubation at 35°C for 48 h. […] All assays were completed in triplicate. […]

C. glabrata = assay: Broth microdilution MIC; assay type: cell-based, Candida glabrata; details: ATCC 90030; CLSI M27-A2, YNB medium, 35°C, no visible growth after 48 h; triplicate
Experimental: as §1, §2, §4

C. parapsilosis = assay: Broth microdilution MIC; assay type: cell-based, Candida parapsilosis; details: ATCC 22019; CLSI M27-A2, YNB medium, 35°C, no visible growth after 48 h; triplicate
Experimental: as §1, §2, §4

A. fumigatus = assay: Broth microdilution MIC (CLSI M38-A2); assay type: cell-based, Aspergillus fumigatus; details: ATCC MYA 3626; CLSI M38-A2, RPMI 1640, 35°C, no visible growth after 48 h; triplicate
Experimental: as §1
Fungal strains were stored in 15% glycerol at −80°C until use. […]
The MICs of the yeast strains for PMB, PME, and octapeptin C4 and its derivatives were determined in accordance with CLSI M27-A2 guidelines using YNB (Becton Dickinson, USA) medium supplemented with 10 mM ammonium sulfate and 2% glucose, a final inoculum concentration of 1.5 × 10^3 to 2.0 × 10^3 cells/ml, and incubation at 35°C for 72 h ([39]). […] The MICs for PMB, PME, and octapeptin C4 for A. fumigatus were determined in accordance with the CLSI M38-A2 guidelines ([40]) using synthetic RPMI 1640 medium (with glutamine, without bicarbonate and with phenol red; Life Technologies, USA). […]

[2] = system: capsule-induced or -suppressed C. neoformans H99 cells; assay: In vitro time course assay of capsule influence; assay type: cell-based, Cryptococcus neoformans; details: PMB at 12.5 μM
Experimental: (A) C. neoformans grown on capsule inducing RPMI 1640 agar medium (without L-glutamine and sodium bicarbonate) with incubation at 37°C in 5% CO2 for 3 days. Scale bar, 20 μm. (B) C. neoformans grown on capsule-suppressing media, YPD containing 1 M NaCl at 30°C in ambient air for 3 days. […] The data represent the means of two replicates, and the error bars represent the standard errors of the mean (SEM).
Capsule induction of strain H99 was achieved as described by Zhai et al. ([37]) with growth on RPMI 1640 (without L-glutamine and sodium bicarbonate) (Sigma, Australia) agar medium and incubation at 37°C in 5% CO2 and capsule suppression by growth on YPD containing 1 M NaCl at 30°C in ambient air. After 3 days, the cells from each culture were collected, washed twice with phosphate-buffered saline (PBS), and resuspended in PBS to avoid changes in the capsule at a density of 1,500 to 2,000 cells/ml. Cell suspensions were treated with test compounds at the determined MIC value. The compounds tested were PMB sulfate, octapeptin C4, and the octapeptin C4 alanine scan derivatives P1L, P1D, P4, P3, P4L, P4D, P5, P6, P7, and P8. At 0, 1, 2, 4, 6, and 8 h after inoculation, samples from each treatment were spread onto a YPD plate, followed by incubation at 30°C for 3 days, at which time the colonies were counted. The assay was repeated in duplicate, and paired sample t tests were performed using GraphPad Prism v7.0 (GraphPad Software, USA).

[3] = system: melanized and nonmelanized C. neoformans cells; assay: In vitro time course assay of melanization effect; assay type: cell-based, Cryptococcus neoformans; details: melanin induced on L-DOPA agar vs suppressed on YPD agar; PMB at 12.5 μM, octapeptin C4 at 1.56 μM; 0-8 h; two replicates
Experimental: (A) Melanin suppressed C. neoformans. (B) Melanin induced C. neoformans. […] Samples from each flask were taken 0, 1, 2, 4, 6, and 8 h after inoculation, spread onto a YPD plate, and incubated at 30°C for 3 days, at which time the colonies were counted. The data represent the means of two replicates, and the error bars represent the SEM.
Melanization was induced by growth on L-DOPA agar medium at 30°C and suppressed by growth on YPD agar medium at 30°C. Cells were grown over 3 days and collected, washed twice in PBS, and then resuspended in PBS at a density of 1,500 to 2,000 cells/ml. Aliquots of the cells were treated with PMB sulfate, octapeptin C4, and the octapeptin C4 derivatives P1L, P1D, P4, P3, P4L, P4D, P5, P6, P7, and P8 at the determined MICs. At 0, 1, 2, 4, 6, and 8 h after inoculation, samples of the suspension were spread onto YPD agar and incubated at 30°C for 3 days, and the colonies were counted. The assay was repeated in duplicate, and paired sample t tests were performed in GraphPad Prism v7.0.

common fungal pathogens = assay: Broth microdilution MIC, panel of fungal pathogens; assay type: cell-based; details: highest concentration 100 μg/ml
Experimental: as §1
The MICs of the yeast strains for PMB, PME, and octapeptin C4 and its derivatives were determined in accordance with CLSI M27-A2 guidelines using YNB (Becton Dickinson, USA) medium supplemented with 10 mM ammonium sulfate and 2% glucose, a final inoculum concentration of 1.5 × 10^3 to 2.0 × 10^3 cells/ml, and incubation at 35°C for 72 h ([39]). […] The MICs for PMB, PME, and octapeptin C4 for A. fumigatus were determined in accordance with the CLSI M38-A2 guidelines ([40]) using synthetic RPMI 1640 medium (with glutamine, without bicarbonate and with phenol red; Life Technologies, USA). The final inoculum concentration was 0.4 × 10^4 to 5 × 10^4 cells/ml, with incubation at 35°C for 48 h. […] All assays were completed in triplicate. […]

Row | Compound | MICs against various Cryptococcus strains: MMRL 2651 (C. gattii MMRL 2651; 72 h) [µg/mL] | MICs against various Cryptococcus strains: ATCC 90113 (C. neoformans ATCC 90113) [µg/mL] | MICs against various Cryptococcus strains: H99 (C. neoformans H99) [µg/mL] | MICs against various Cryptococcus strains: H99 (cap59Δ) [1] [µg/mL] | MIC C. albicans (C. albicans) [µg/mL] | MIC C. glabrata (C. glabrata) [µg/mL] | MIC C. parapsilosis (C. parapsilosis) [µg/mL] | MIC A. fumigatus (A. fumigatus) [µg/mL] | MIC C. neoformans H99 (C. neoformans H99) [µg/mL] | other results
1 | CCCCCCC[C@@H](O)CC(=O)N[C@H](CCN)C(=O)N[C@H]1CCNC(=O)[C@H](CC(C)C)NC(=O)[C@H](CCN)NC(=O)[C@H](C)NC(=O)[C@H](CC(C)C)NC(=O)[C@@H](Cc2ccccc2)NC(=O)[C@H](CCN)NC1=O [Compound P6] ({Decanoyl(3R-OH)}-[dDab][Dab][Dab][dF]LA[Dab]L; lactam 2-C) | 6.25 | 6.25 | 6.25 | 12.5 | – | – | – | – | – | –
2 | CCCCCCC[C@@H](O)CC(=O)N[C@H](CCN)C(=O)N[C@H]1CCNC(=O)[C@H](CC(C)C)NC(=O)[C@H](C)NC(=O)[C@H](CCN)NC(=O)[C@H](CC(C)C)NC(=O)[C@@H](Cc2ccccc2)NC(=O)[C@H](CCN)NC1=O [Compound P7] ({Decanoyl(3R-OH)}-[dDab][Dab][Dab][dF]L[Dab]AL; lactam 2-C) | – | 6.25 | 6.25 | 12.5 | – | – | – | – | – | MICs against various Cryptococcus strains: MMRL 2651 (C. gattii MMRL 2651; Table 2, C. gattii, triplicate, values consistent across replicates): 12.5 µg/mL
3 | CCCCCCC[C@@H](O)CC(=O)N[C@H](CCN)C(=O)N[C@H]1CCNC(=O)[C@H](C)NC(=O)[C@H](CCN)NC(=O)[C@H](CCN)NC(=O)[C@H](CC(C)C)NC(=O)[C@@H](Cc2ccccc2)NC(=O)[C@H](CCN)NC1=O [Compound P8] ({Decanoyl(3R-OH)}-[dDab][Dab][Dab][dF]L[Dab][Dab]A; lactam 2-C) | 50.0 | 6.25 | 50.0 | 100 | – | – | – | – | – | –
4 | polymyxin B [PMB] | – | – | – | – | >100 | >100 | >100 | >100 | 12.5 | MIC C. gattii (C. gattii MMRL 2651; Table 1, MMRL 2651, CLSI M27-A2, YNB medium, 35°C, 72 h, triplicate): 25.0 µg/mL; MIC C. neoformans ATCC 90113 (C. neoformans ATCC 90113; Table 1, CLSI M27-A2, YNB medium, 35°C, no visible growth after 72 h, triplicate): 12.5 µg/mL; MIC C. neoformans H99 (cap59Δ) ([1]; Table 1, CLSI M27-A2, YNB medium, 35°C, no visible growth after 72 h): 50 µg/mL; time to 50% reduction in viability, fungal cells with large capsule ([2]; H99, capsule induced on RPMI 1640 agar 37°C 5% CO2, cells in PBS, colony counts, two replicates): around 1 h; time to 50% reduction in viability, capsule suppressed fungal cells ([2]; H99, capsule suppressed on YPD with 1 M NaCl 30°C, relative to large capsule cells): five times longer; effect of capsule formation on fungicidal activity ([2]; H99, octapeptin C4 at 1.56 μM, 0-8 h, two replicates): enhanced the fungicidal effect; effect of melanization on fungicidal activity [3]: no difference in activity
5 | polymyxin E [PME] | – | – | – | – | >100 | >100 | >100 | >100 | 100 | antifungal activity against any of the species analyzed (common fungal pathogens): did not show significant antifungal activity
